Assays:
[1] = tested on: YPEN-1 cells (rat prostatic endothelial cell line); experiment: In vitro ROS scavenging activity assay (DCFDA); type: cell-based; details: cells pre-treated with 50 μM SIN-1 for 1 hour; DCFDA fluorescence; positive control trolox; FIGS. 1 and 2
Method: YPEN-1 cells (rat prostatic endothelial cell line) was obtained from American type culture collection (ATCC, Manassas, Va., USA), and the cells were cultured by using a dulbecco's modified eagle medium (DMEM, Nissui, Tokyo, Japan) containing 2 mM L-glutamine, […], 2.5 mg/L amphotericin B, and 5% inactivated fetal bovine serum (FBS). Also, the cells were maintained at a temperature of 37° C. in a humid atmosphere-like condition containing 5% CO2 and 95% air. […] The cells were sub-cultured in 100 mm plastic flask (Corning Co., New York, USA) every two days to maintain the cell line.
2′,7′-dichlorodihydrofluorescein diacetate (DCFDA) assay method according to a conventionally known method (Chem Res Toxicol. 5: 227-231, 1992) was used. In detail, 12.5 mM DCFDA dissolved in 99.9% ethanol and 600 U/ml esterase dissolved in tertiary distilled water were stored as a stock solution at a temperature of −20° C., and a 2′,7′-dichlorodihydrofluorescein (DCFH) solution prepared by mixing 10 mM DCFDA and 6 U/ml esterase was cultured at a temperature of 22° C. for 20 minutes, and then, refrigerated in a dark place before use. […] Vascular endothelial cells that were pre-treated with 50 μM 3-morpholinosydnonimine hydrochloride (SIN-1) for 1 hour were used as a reactive oxygen generation source.

[2] = tested on: Mushroom-derived tyrosinase; experiment: Tyrosinase inhibitory effect; type: biochemical; details: 1 mM L-tyrosin, pH 6.5, 25° C., 30 minutes, OD492; positive control kojic acid; FIGS. 3 and 4
Method: Mushroom-derived tyrosinase was sued as an enzyme source in the present experiment. Tyrosinase activities were assayed according to a slightly-modified conventionally known method (Life Sci., 1999, 65, 241-246). In detail, 20 μl of a mushroom-derived tyrosinase (1000 units) aqueous solution was added to 96-well microplate (Nunc, Denmark) to prepare 200 μl of the total volume of assay mixture containing 1 mM L-tyrosin solution and 50 mM phosphate buffer solution (pH 6.5). The assay mixture was cultured at a temperature of 25° C. for 30 minutes.

PPAR gamma-LBD = target: T1, PPAR gamma-LBD (Homo sapiens, UniProt P37231); experiment: PPAR assay, PPARγ; type: binding; details: sample final concentration 100 μM; positive control rosiglitazone; FIGS. 7 and 8
T1 sequence (P37231 238-503 limits assumed): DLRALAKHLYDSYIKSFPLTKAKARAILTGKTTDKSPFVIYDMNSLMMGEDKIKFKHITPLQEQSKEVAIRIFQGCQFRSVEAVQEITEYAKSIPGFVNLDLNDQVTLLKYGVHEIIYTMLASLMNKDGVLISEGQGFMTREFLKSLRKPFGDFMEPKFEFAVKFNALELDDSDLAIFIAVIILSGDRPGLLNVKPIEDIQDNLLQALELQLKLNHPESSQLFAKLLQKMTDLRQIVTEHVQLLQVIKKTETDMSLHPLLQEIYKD

PPAR alpha-LBD = target: T2, PPAR alpha-LBD (Homo sapiens, UniProt Q07869); experiment: PPAR assay, PPARα; details: for PPARα activation (competitive activation rate), compared with fenofibrate: sample final concentration 100 μM, positive control fenofibrate, FIGS. 5 and 6; for simultaneous activation of PPARα and PPARγ: summary of the PPARα and PPARγ assays, sample 100 μM
T2 sequence (Q07869 239-466 limits assumed): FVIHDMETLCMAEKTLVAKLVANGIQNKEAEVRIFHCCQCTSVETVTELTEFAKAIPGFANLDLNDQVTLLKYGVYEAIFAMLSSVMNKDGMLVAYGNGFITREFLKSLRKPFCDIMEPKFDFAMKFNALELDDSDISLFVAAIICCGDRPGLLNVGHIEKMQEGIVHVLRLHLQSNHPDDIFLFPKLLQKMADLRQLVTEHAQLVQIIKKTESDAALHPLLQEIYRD

SMILES | scavenging effects on ROS generated by vascular endothelial cells, compared with trolox [1] | melting point [°C] | tyrosinase inhibitory activities, compared with kojic acid [2] | PPARγ activation (competitive activation rate), compared with rosiglitazone (PPAR gamma-LBD) | PPARα activation (competitive activation rate), compared with fenofibrate (PPAR alpha-LBD) | simultaneous activation of PPARα and PPARγ (PPAR alpha-LBD)
O=C(O)[C@@H]1CSC(c2ccc(O)c(O)c2)N1 (mixture of isomers) [Compound 2, (2R/S,4R)-2-(3,4-dihydroxyphenyl)thiazolidine-4-carboxylic acid] | as high scavenging effects on ROS generated by vascular endothelial cells as trolox | 195.5 to 196.8 |  |  |  | 
O=C(O)[C@@H]1CSC(c2ccc(O)cc2O)N1 (mixture of isomers) [Compound 3, (2R/S,4R)-2-(2,4-dihydroxyphenyl)thiazolidine-4-carboxylic acid] |  |  | better tyrosinase inhibitory activities than a kojic acid |  |  | 
COc1ccc(C2N[C@H](C(=O)O)CS2)c(OC)c1 (mixture of isomers) [Compound 9, (2R/S,4R)-2-(2,4-dimethoxyphenyl)thiazolidine-4-carboxylic acid] |  | 137.7 to 139.2 | better tyrosinase inhibitory activities than a kojic acid |  |  | 
COC(=O)[C@@H]1CSC(c2ccc(O)c(O)c2)N1 (mixture of isomers) [Compound 104, (2R/S,4R)-methyl 2-(3,4-dihydroxyphenyl)thiazolidine-4-carboxylate] | as high scavenging effects on ROS generated by vascular endothelial cells as trolox | 116 to 118 |  |  |  | 
Oc1ccc(-c2nc3ccccc3s2)cc1 [Compound 13, 4-(benzo[d]thiazol-2-yl)phenol] |  |  | better tyrosinase inhibitory activities than a kojic acid | very excellent PPARγ activation agent compared to rosiglitazone | very excellent PPARα activation agent compared to fenofibrate | simultaneously activates PPARα and PPARγ
Oc1ccc(-c2nc3ccccc3s2)cc1O [Compound 14, 4-(benzo[d]thiazol-2-yl)benzene-1,2-diol] | as high scavenging effects on ROS generated by vascular endothelial cells as trolox |  |  |  |  | 
Oc1ccc(-c2nc3ccccc3s2)c(O)c1 [Compound 15, 4-(benzo[d]thiazol-2-yl)benzene-1,3-diol] |  |  | better tyrosinase inhibitory activities than a kojic acid |  |  | 
Oc1ccc(-c2nc3cc(C(F)(F)F)ccc3s2)cc1O [Compound 29, 4-(5-(trifluoromethyl)benzo[d]thiazol-2-yl)benzene-1,2-diol] | as high scavenging effects on ROS generated by vascular endothelial cells as trolox | 267.3 to 269.4 |  |  |  | 
Oc1ccc(-c2nc3cc(C(F)(F)F)ccc3s2)c(O)c1 [Compound 30, 4-(5-(trifluoromethyl)benzo[d]thiazol-2-yl)benzene-1,3-diol] |  | 236.2 to 238.2 | better tyrosinase inhibitory activities than a kojic acid |  |  | 
Oc1ccc(-c2nc3ccccc3[nH]2)cc1O [Compound 44, 4-(1H-benzo[d]imidazol-2-yl)benzene-1,2-diol] | as high scavenging effects on ROS generated by vascular endothelial cells as trolox | 268.5 to 269.8 |  | very excellent PPARγ activation agent compared to rosiglitazone | very excellent PPARα activation agent compared to fenofibrate | simultaneously activates PPARα and PPARγ
Oc1ccc(C2NCCS2)cc1O (centres unmarked) [Compound 72, 4-(Thiazolidin-2-yl)benzene-1,2-diol] | as high scavenging effects on ROS generated by vascular endothelial cells as trolox |  |  |  |  | 
COc1cc(C2NCCS2)cc(OC)c1O (centres unmarked) [Compound 80, 2,6-dimethoxy-4-(thiazolidin-2-yl)phenol] | as high scavenging effects on ROS generated by vascular endothelial cells as trolox |  |  |  |  | 
Oc1ccc(-c2nc3cc(Cl)ccc3s2)cc1 [Compound 82, 4-(5-chlorobenzo[d]thiazol-2-yl)phenol] |  | 259.3 to 263.1 | better tyrosinase inhibitory activities than a kojic acid |  |  | 
CCOc1cc(-c2nc3cc(Cl)ccc3s2)ccc1O [Compound 86, 4-(5-chlorobenzo[d]thiazol-2-yl)-2-ethoxyphenol] |  | 102.1 to 103.4 |  | very excellent PPARγ activation agent compared to rosiglitazone | very excellent PPARα activation agent compared to fenofibrate | simultaneously activates PPARα and PPARγ
Oc1ccc(-c2nc3cc(Cl)ccc3s2)cc1Br [Compound 95, 2-bromo-4-(5-chlorobenzo[d]thiazol-2-yl)phenol] |  | 226 to 228.1 |  | very excellent PPARγ activation agent compared to rosiglitazone | very excellent PPARα activation agent compared to fenofibrate | simultaneously activates PPARα and PPARγ
CC(C)(C)[Si](C)(C)Oc1ccc2c(-c3ccccc3)cc(=O)oc2c1O[Si](C)(C)C(C)(C)C [Compound 100, 7,8-bis(tert-butyldimethylsilyloxy)-4-phenyl-2H-chromen-2-one] | as high scavenging effects on ROS generated by vascular endothelial cells as trolox |  |  |  |  | 
O=C(O)c1csc(-c2ccc(O)cc2O)n1 [Compound 101, 2-(2,4-Dihydroxyphenyl)thiazole-4-carboxylic acid] |  |  | better tyrosinase inhibitory activities than a kojic acid |  |  | 
O=C(O)[C@@H]1CSC(c2ccc(O)c(O)c2)=N1 [Compound 102, (4R)-2-(3,4-dihydroxyphenyl)-4,5-dihydrothiazole-4-carboxylic acid] | as high scavenging effects on ROS generated by vascular endothelial cells as trolox | 178 to 179 |  |  |  | 
COC(=O)c1csc(-c2ccc(OC(C)=O)c(OC(C)=O)c2)n1 [Compound 103, 4-(4-(Methoxycarbonyl)thiazol-2-yl)-1,2-phenylene diacetate] | as high scavenging effects on ROS generated by vascular endothelial cells as trolox | 137 to 138 |  |  |  | 
Oc1ccc(C2Nc3cc(C(F)(F)F)ccc3S2)cc1Br (centres unmarked) [Compound 119, 2-bromo-4-(5-(trifluoromethyl)-2,3-dihydrobenzo[d]thiazol-2-yl)phenol] | as high scavenging effects on ROS generated by vascular endothelial cells as trolox |  |  | very excellent PPARγ activation agent compared to rosiglitazone | very excellent PPARα activation agent compared to fenofibrate | simultaneously activates PPARα and PPARγ

— US8889881B2, “Compound having skin-whitening, anti-oxidizing and PPAR activities and medical use therefor” (Pusan National University Industry —University Cooperation …, priority 2011, dated 2014)
